Experimental findings from patent publication US11254688B2 (Boehringer Ingelheim International GmbH, priority 2018, dated 2022) are described below.

The structures appear in SMILES notation. Structures can show the parent of a compound that is named as a salt.

The term IC50 denotes the point on the concentration scale where inhibition reaches its midpoint. A low value points to greater potency in that assay.

In the assay the target is T1, hGOAT (Homo sapiens, UniProt Q96T53).
T1 construct: expressed in transfected cells; host or cells: HEK293 (Hek293 hGOAT/PPGhrl Clone #1B8)
T1 sequence (Q96T53 1-435): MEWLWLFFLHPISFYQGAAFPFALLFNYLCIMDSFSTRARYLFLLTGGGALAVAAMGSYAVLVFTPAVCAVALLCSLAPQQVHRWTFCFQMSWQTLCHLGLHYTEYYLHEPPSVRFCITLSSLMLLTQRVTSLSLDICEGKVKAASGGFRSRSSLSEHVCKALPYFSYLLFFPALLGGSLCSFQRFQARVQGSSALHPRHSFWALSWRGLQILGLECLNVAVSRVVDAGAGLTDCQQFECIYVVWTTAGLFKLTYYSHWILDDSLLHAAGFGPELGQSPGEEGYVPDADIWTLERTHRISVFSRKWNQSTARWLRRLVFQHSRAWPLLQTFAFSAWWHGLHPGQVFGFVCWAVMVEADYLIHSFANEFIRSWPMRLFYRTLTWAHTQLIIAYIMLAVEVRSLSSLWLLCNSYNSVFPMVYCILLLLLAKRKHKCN
The assay is described as follows: Determination of hGOAT activity in HEK293 cells after incubation with test compound (acyl-ghrelin ELISA). The format is cell-based. Particulars: HEK293 cells stably transfected with preproghrelin and human GOAT; octanoate-BSA 100 μM; 5 hours incubation; acyl-ghrelin in medium by ELISA; 8 compound concentrations.
With `CNC(=O)c1cc(Cc2c(C)nc3nonc3c2N)ccc1Cl` [Compound 15.4, 5-({7-Amino-5-methyl-[1,2,5]oxadiazolo[3,4-b]pyridin-6-yl}methyl)-2-chloro-N-methylbenzamide], the IC50 was determined as 0.933 nM.

The compound `Cc1nc2nonc2c(N)c1Cc1ccc(Cl)c(C(=O)N(C)C)c1` [Compound 15.5, 5-({7-Amino-5-methyl-[1,2,5]oxadiazolo[3,4-b]pyridin-6-yl}methyl)-2-chloro-N,N-dimethylbenzamide] registered an IC50 of 0.475 nM.

`Cc1nc2nonc2c(N)c1Cc1ccc(C(F)(F)F)c(C(=O)N(C)C)c1` [Compound 15.6, 5-({7-Amino-5-methyl-[1,2,5]oxadiazolo[3,4-b]pyridin-6-yl}methyl)-N,N-dimethyl-2-(trifluoromethyl)benzamide] gave a concentration for half-maximal inhibition (IC50) of 1.26 nM. Compared with the last compound, the IC50 is about 2.7-fold higher.

`Cc1nc2nonc2c(N)c1Cc1ccc(OC(F)(F)F)c(C#N)c1` [Compound 16.1, 5-({7-Amino-5-methyl-[1,2,5]oxadiazolo[3,4-b]pyridin-6-yl}methyl)-2-(trifluoromethoxy)benzonitrile] displayed an IC50 of 0.26 nM. This IC50 is about 4.8-fold lower than that of the compound before.

In turn, `Cc1nc2nonc2c(N)c1Cc1ccc(CO)cc1` [Compound 17.1, [4-({7-Amino-5-methyl-[1,2,5]oxadiazolo[3,4-b]pyridin-6-yl}methyl)phenyl]methanol] yielded a 50% inhibitory concentration (IC50) of 0.726 nM.

In turn, `Cc1nc2nonc2c(N)c1Cc1ccc(C(F)F)cc1` [Compound 17.2, 6-{[4-(difluoromethyl)phenyl]methyl}-5-methyl-[1,2,5]oxadiazolo[3,4-b]pyridin-7-amine] gave a concentration for half-maximal inhibition (IC50) of 0.171 nM.

`Cc1nc2nonc2c(N)c1Cc1ccc([S+](C)[O-])cc1` (stereo not shown) [Compound 18.1, 6-[(4-Methanesulfinylphenyl)methyl]-5-methyl-[1,2,5]oxadiazolo[3,4-b]pyridin-7-amine]: the IC50 is 0.921 nM.

Consider `Cc1nc2nonc2c(N)c1Cc1ccc(C2(C(N)=O)CC2)nc1` [Compound 19.1, 1-[5-({7-Amino-5-methyl-[1,2,5]oxadiazolo[3,4-b]pyridin-6-yl}methyl)pyridin-2-yl]cyclopropane-1-carboxamide], for which the IC50 was 4.53 nM.

Consider `Cc1nc2nonc2c(N)c1Cc1ccc(C2(C(=O)O)CC2)nc1` [Compound 19.2, 1-[5-({7-Amino-5-methyl-[1,2,5]oxadiazolo[3,4-b]pyridin-6-yl}methyl)pyridin-2-yl]cyclopropane-1-carboxylic Acid], for which the midpoint of inhibition, the IC50, lay at 8.42 nM.

The compound `Cc1nc2nonc2c(N)c1Cc1ccc(C(C)(C)C(N)=O)nc1` [Compound 19.3, 2-[5-({7-Amino-5-methyl-[1,2,5]oxadiazolo[3,4-b]pyridin-6-yl}methyl)pyridin-2-yl]-2-methylpropanamide] gave an IC50 of 0.555 nM.

As to `Cc1nc2nonc2c(N)c1Cc1ccc(C(C)(C)C(=O)O)nc1` [Compound 19.4, 2-[5-({7-Amino-5-methyl-[1,2,5]oxadiazolo[3,4-b]pyridin-6-yl}methyl)pyridin-2-yl]-2-methylpropanoic Acid], half-maximal inhibition (IC50) was put at 0.534 nM. The IC50 values of the last two compounds are within 1.5-fold of each other.

Compound `Cc1nc2nonc2c(N)c1Cc1ccc(Br)c(C(N)=O)c1` [Compound 19.5, 5-({7-Amino-5-methyl-[1,2,5]oxadiazolo[3,4-b]pyridin-6-yl}methyl)-2-bromobenzamide] displayed a half-inhibitory concentration (IC50) of 2.22 nM.

Turning to `Cc1nc2nonc2c(N)c1Cc1ccc(F)c(C(N)=O)c1` [Compound 19.6, 5-({7-Amino-5-methyl-[1,2,5]oxadiazolo[3,4-b]pyridin-6-yl}methyl)-2-fluorobenzamide], the half-inhibitory concentration (IC50) is 2.06 nM. The IC50 values of the last two compounds are within 1.5-fold of each other.

Compound `Cc1nc2nonc2c(N)c1Cc1ccc(C(F)(F)F)c(C(N)=O)c1` [Compound 19.7, 5-({7-Amino-5-methyl-[1,2,5]oxadiazolo[3,4-b]pyridin-6-yl}methyl)-2-(trifluoromethyl) benzamide] yielded an IC50 of 7.97 nM. This IC50 lies about 3.9-fold higher than the previous one.

Consider `Cc1nc2nonc2c(N)c1Cc1ccc(-n2cc(C#N)cn2)nc1` [Compound 20.1, 1-[5-({7-Amino-5-methyl-[1,2,5]oxadiazolo[3,4-b]pyridin-6-yl}methyl)pyridin-2-yl]-1H-pyrazole-4-carbonitrile Trifluoro-Acetic Acid Salt], for which the IC50 was determined as 4.63 nM.

Turning to `Cc1nc2nonc2c(N)c1Cc1ccc(-n2cccn2)nc1` [Compound 20.2, 5-Methyl-6-{[6-(1H-pyrazol-1-yl)pyridin-3-yl]methyl}-[1,2,5]oxadiazolo[3,4-b]pyridin-7-amine Trifluoro-Acetic Acid Salt], the IC50 came out at 3.24 nM.

Turning to `Cc1nc2nonc2c(N)c1Cc1ccc(C#N)c(OCC(F)(F)F)c1` [Compound 21.1, 4-({7-Amino-5-methyl-[1,2,5]oxadiazolo[3,4-b]pyridin-6-yl}methyl)-2-(2,2,2-trifluoroethoxy)benzonitrile], half-maximal inhibition (IC50) was put at 0.099 nM.

The compound `Cc1nc2nonc2c(N)c1Cc1ccc(C#N)c(OCC(F)F)c1` [Compound 21.2, 4-({7-Amino-5-methyl-[1,2,5]oxadiazolo[3,4-b]pyridin-6-yl}methyl)-2-(2,2-difluoroethoxy)benzonitrile] had an IC50 of 0.176 nM.

On to `Cc1nc2nonc2c(N)c1Cc1ccc(C#N)c(O[C@H]2CCNC2=O)c1` [Compound 21.3, 4-({7-Amino-5-methyl-[1,2,5]oxadiazolo[3,4-b]pyridin-6-yl}methyl)-2-{[(3S)-2-oxopyrrolidin-3-yl]oxy}benzonitrile], for which half-maximal inhibition (IC50) required 1.58 nM.

`Cc1nc2nonc2c(N)c1Cc1ccc(C#N)c(OCCC(F)(F)F)c1` [Compound 21.4, 4-({7-Amino-5-methyl-[1,2,5]oxadiazolo[3,4-b]pyridin-6-yl}methyl)-2-(3,3,3-trifluoropropoxy)benzonitrile] had an IC50 of 0.786 nM.

In the case of `Cc1nc2nonc2c(N)c1Cc1ccc(C#N)c(OCC2CC2(F)F)c1` (stereo not shown) [Compound 21.5, 4-({7-Amino-5-methyl-[1,2,5]oxadiazolo[3,4-b]pyridin-6-yl}methyl)-2-[(2,2-difluorocyclopropyl)methoxy]benzonitrile], the concentration for half-maximal inhibition (IC50) was determined as 0.198 nM.

In turn, `Cc1nc2nonc2c(N)c1Cc1ccc(C#N)c(OCC(C)(C)O)c1` [Compound 21.6, 4-({7-Amino-5-methyl-[1,2,5]oxadiazolo[3,4-b]pyridin-6-yl}methyl)-2-(2-hydroxy-2-methylpropoxy)benzonitrile] yielded a concentration for half-maximal inhibition (IC50) of 0.15 nM.

`Cc1nc2nonc2c(N)c1Cc1ccc(C#N)c(OCC2(C(F)(F)F)CC2)c1` [Compound 21.7, 4-({7-Amino-5-methyl-[1,2,5]oxadiazolo[3,4-b]pyridin-6-yl}methyl)-2-{[1-(trifluoromethyl)cyclopropyl]methoxy}benzonitrile]: the IC50 came to 0.278 nM.

With `Cc1nc2nonc2c(N)c1Cc1ccc(C#N)c(OC2CCN(C)C2)c1` (stereo not shown) [Compound 21.8, 4-(7-Amino-5-methyl-[1,2,5]oxadiazolo[3,4-b]pyridin-6-ylmethyl)-2-(1-methyl-pyrrolidin-3-yloxy)-benzonitrile], the IC50 was found to be 1.09 nM.

The compound `Cc1nc2nonc2c(N)c1Cc1ccc(C#N)c(O[C@H]2CCC(=O)NC2)c1` [Compound 21.9, 4-({7-Amino-5-methyl-[1,2,5]oxadiazolo[3,4-b]pyridin-6-yl}methyl)-2-{[(3S)-6-oxopiperidin-3-yl]oxy}benzonitrile] registered an IC50 of 17 nM. Against the preceding compound, the IC50 is about 16-fold higher.

For the compound `Cc1nc2nonc2c(N)c1Cc1ccc(OC2CCOC2)nc1` (stereo not shown) [Compound 21.10, 5-Methyl-6-{[6-(oxolan-3-yloxy)pyridin-3-yl]methyl}-[1,2,5]oxadiazolo[3,4-b]pyridin-7-amine], the half-inhibitory concentration (IC50) was 2.57 nM.

`Cc1nc2nonc2c(N)c1Cc1ccc(OCC2(C)COC2)nc1` [Compound 21.11, 5-Methyl-6-({6-[(3-methyloxetan-3-yl)methoxy]pyridin-3-yl}methyl)-[1,2,5]oxadiazolo[3,4-b]pyridin-7-amine]: the IC50 came to 1.92 nM.

As for `Cc1nc2nonc2c(N)c1Cc1ccc(OC2CCOCC2)nc1` [Compound 21.12, 5-Methyl-6-[6-(tetrahydro-pyran-4-yloxy)-pyridin-3-ylmethyl]-[1,2,5]oxadiazolo[3,4-b]pyridin-7-ylamine], the half-inhibitory concentration (IC50) came to 0.978 nM.

Compound `Cc1nc2nonc2c(N)c1Cc1ccc(Cl)cc1` [Compound 22.1, 6-[(4-Chlorophenyl)methyl]-5-methyl-[1,2,5]oxadiazolo[3,4-b]pyridin-7-amine] had an IC50 of 0.432 nM. This IC50 lies about 2.3-fold lower than the previous one.

Compound `Cc1nc2nonc2c(N)c1C(=O)c1ccc(OC(F)(F)F)cc1` [Compound 22.2, 5-Methyl-6-[4-(trifluoromethoxy)benzoyl]-[1,2,5]oxadiazolo[3,4-b]pyridin-7-amine] registered an IC50 of 2.49 nM.

Consider `Nc1c(Cc2ccc(Br)cc2)c(Cl)nc2nonc12` [Compound 23.1, 6-[(4-Bromophenyl)methyl]-5-chloro-[1,2,5]oxadiazolo[3,4-b]pyridin-7-amine], for which the half-inhibitory concentration (IC50) turned out to be 0.485 nM.

`Nc1c(Cc2ccc(C(F)(F)F)cc2)c(Cl)nc2nonc12` [Compound 23.2, 5-Chloro-6-{[4-(trifluoromethyl)phenyl]methyl}-[1,2,5]oxadiazolo[3,4-b]pyridin-7-amine] gave an IC50 of 0.232 nM.

Turning to `Nc1c(Cc2ccc(OC(F)(F)F)cc2)c(Cl)nc2nonc12` [Compound 23.3, 5-Chloro-6-{[4-(trifluoromethoxy)phenyl]methyl}-[1,2,5]oxadiazolo[3,4-b]pyridin-7-amine], the IC50 amounted to 0.298 nM.

Regarding `COc1cc(Cc2c(Cl)nc3nonc3c2N)ccc1C(F)(F)F` [Compound 23.4, 5-Chloro-6-{[3-methoxy-4-(trifluoromethyl)phenyl]methyl}-[1,2,5]oxadiazolo[3,4-b]pyridin-7-amine], 0.139 nM corresponded to half-maximal inhibition (IC50).
